Like-named read-outs stand apart in the source and are kept apart here.
Columns and labels:
[1] = target: human cytochrome P450 CYP3A4 (Homo sapiens, UniProt P08684); assay: In vitro metabolism by CYP3A4; format: in vitro ADME
[2] = Phase 1 study: plasma pharmacokinetics in patients; format: in vivo, human; conditions: for conversion to compound (1-h) in patients: plasma PK after oral dosing
Protocol: All patients received compound (1-g) orally. The time of day for administration of compound (1-g) was consistent. Compound (1-g) was taken whole with liquid(s) and with food in the morning. The patient avoided taking other medications at the same time as compound (1-g). When possible, the patient took other medications in the evening or separated by a minimum of 4 hours following compound (1-g) dosing. On scheduled PK collection days (Cycle 1 Day 1, Cycle 1 Day 15, and Day 1 of Cycles 2, 3, 4, and 6) patients were instructed to wait until they arrive at the study center to take their study drug when told. If a patient missed a dose of compound (1-g), the patient was required to take the dose as soon as possible, but not less than 12 hours before the next dose is due. If vomiting occurred after taking the study treatment, the patient was instructed not to retake the dose and record the dose recorded as taken in the dosing diary, noting that the patient vomited and marking the time of vomiting. Patients were instructed to take the next scheduled dose of compound (1-g).
The plasma PK parameters (including AUC(0-∞), AUC(0-τ), Cmax, tmax, and T1/2) of compound (1-g) following oral administration was assessed by analysis of blood samples. During treatment, PK blood samples were taken at approximately the following time points: • Cycle 1 Day 1, and Day 15: pre-dose; at 1, 2, and 4-hour post-dose (±5 min); 6 and 8-hour post-dose (±10 min); and 24 hours post-dose (+1 hour); • Cycle 2, 3, 4, and 6 Day 1: pre-dose only.
Plasma concentrations of compound (1-g) were used to calculate the PK parameters. These parameters were listed by individual patient and summarized by descriptive statistics (means, medians, ranges, standard deviations, and coefficients of variation as appropriate) by cohort.
Compound (1-g) was administered orally to patients once a day at 100, 200, 300 mg, 400 mg, and 600 mg doses.

Sequence of human cytochrome P450 CYP3A4 (P08684 whole entry): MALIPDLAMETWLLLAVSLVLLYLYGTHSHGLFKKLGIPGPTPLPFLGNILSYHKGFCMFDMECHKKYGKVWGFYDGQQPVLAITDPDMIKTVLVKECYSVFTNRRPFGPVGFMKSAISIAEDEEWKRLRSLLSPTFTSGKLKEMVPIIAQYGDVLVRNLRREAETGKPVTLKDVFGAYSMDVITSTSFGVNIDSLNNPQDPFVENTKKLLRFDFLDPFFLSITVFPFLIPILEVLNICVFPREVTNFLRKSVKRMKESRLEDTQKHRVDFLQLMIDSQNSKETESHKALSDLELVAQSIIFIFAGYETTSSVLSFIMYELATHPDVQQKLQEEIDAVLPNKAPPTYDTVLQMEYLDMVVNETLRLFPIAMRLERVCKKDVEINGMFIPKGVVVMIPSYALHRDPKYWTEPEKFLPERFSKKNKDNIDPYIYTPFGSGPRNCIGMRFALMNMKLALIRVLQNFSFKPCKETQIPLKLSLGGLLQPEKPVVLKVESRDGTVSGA

## O=C1CC[C@H](N2Cc3cc(N4CCN(CC5CCN(c6ccc([C@@H]7c8ccc(O)cc8OC[C@@H]7c7ccccc7)cc6F)CC5)CC4)ccc3C2=O)C(=O)N1 [compound (1-g), (S)-3-(5-(4-((1-(2-fluoro-4-((3S,4R)-7-hydroxy-3-phenylchroman-4-yl)phenyl)piperidin-4-yl)methyl)piperazin-1-yl)-1-oxoisoindolin-2-yl)piperidine-2,6-dione]
[1]
  metabolism by CYP3A4: weakly metabolized
[2]; human, plasma, po, 100 mg, patient plasma, oral (1-g) 100 mg QD, C1D1, n = 3, *median value, read-out: Tmax*
  Tmax: 12.7 h
[2]; human, plasma, po, 100 mg, patient plasma, oral (1-g) 100 mg QD, C1D1, n = 3, mean, read-out: AUC0-24 h
  AUC(0-t): 7570 ng·h/mL
[2]; human, plasma, po, 100 mg, patient plasma, oral (1-g) 100 mg QD, C1D1, n = 3, mean, read-out: Cmax
  Cmax: 432 ng/mL
[2]; human, plasma, po, 100 mg, patient plasma, oral (1-g) 100 mg QD, C1D1, n = 3, mean, read-out: T½ (converted)
  half-life: 20.2 h
[2]; human, plasma, po, 100 mg, patient plasma, oral (1-g) 100 mg QD, C1D15 (steady state), n = 3, mean, read-out: AUC0-24 h
  AUC(0-t): 19500 ng·h/mL
[2]; human, plasma, po, 100 mg, patient plasma, oral (1-g) 100 mg QD, C1D15 (steady state), n = 3, mean, read-out: Cmax
  Cmax: 1010 ng/mL
[2]; human, plasma, po, 100 mg, patient plasma, oral (1-g) 100 mg QD, C1D15, n = 3, *median value, read-out: Tmax*
  Tmax: 6.67 h
[2]; human, plasma, po, 100 mg, patient plasma, oral (1-g) 100 mg QD, C1D15, n = 3, mean, read-out: T½ (converted)
  half-life: 32.1 h
[2]; human, plasma, po, 200 mg, patient plasma, oral (1-g) 200 mg QD, C1D1, n = 12, *median value, read-out: Tmax*
  Tmax: 5.5 h
[2]; human, plasma, po, 200 mg, patient plasma, oral (1-g) 200 mg QD, C1D1, n = 12, mean, read-out: AUC0-24 h
  AUC(0-t): 11200 ng·h/mL
[2]; human, plasma, po, 200 mg, patient plasma, oral (1-g) 200 mg QD, C1D1, n = 12, mean, read-out: Cmax
  Cmax: 630 ng/mL
[2]; human, plasma, po, 200 mg, patient plasma, oral (1-g) 200 mg QD, C1D1, n = 12, mean, read-out: T½ (converted)
  half-life: 38.3 h
[2]; human, plasma, po, 200 mg, patient plasma, oral (1-g) 200 mg QD, C1D15 (steady state), n = 12, mean, read-out: AUC0-24 h
  AUC(0-t): 26000 ng·h/mL
[2]; human, plasma, po, 200 mg, patient plasma, oral (1-g) 200 mg QD, C1D15 (steady state), n = 12, mean, read-out: Cmax
  Cmax: 1340 ng/mL
[2]; human, plasma, po, 200 mg, patient plasma, oral (1-g) 200 mg QD, C1D15, n = 12, *median value, read-out: Tmax*
  Tmax: 4 h
[2]; human, plasma, po, 200 mg, patient plasma, oral (1-g) 200 mg QD, C1D15, n = 12, mean, read-out: T½ (converted)
  half-life: 48.8 h
[2]; human, plasma, po, 300 mg, patient plasma, oral (1-g) 300 mg QD, C1D1, n = 10, *median value, read-out: Tmax*
  Tmax: 5.8 h
[2]; human, plasma, po, 300 mg, patient plasma, oral (1-g) 300 mg QD, C1D1, n = 10, mean, read-out: AUC0-24 h
  AUC(0-t): 16600 ng·h/mL
[2]; human, plasma, po, 300 mg, patient plasma, oral (1-g) 300 mg QD, C1D1, n = 10, mean, read-out: Cmax
  Cmax: 963 ng/mL
[2]; human, plasma, po, 300 mg, patient plasma, oral (1-g) 300 mg QD, C1D1, n = 10, mean, read-out: T½ (converted)
  half-life: 31.2 h
[2]; human, plasma, po, 300 mg, patient plasma, oral (1-g) 300 mg QD, C1D15 (steady state), n = 10, mean, read-out: AUC0-24 h
  AUC(0-t): 41800 ng·h/mL
[2]; human, plasma, po, 300 mg, patient plasma, oral (1-g) 300 mg QD, C1D15 (steady state), n = 10, mean, read-out: Cmax
  Cmax: 2190 ng/mL
[2]; human, plasma, po, 300 mg, patient plasma, oral (1-g) 300 mg QD, C1D15, n = 10, *median value, read-out: Tmax*
  Tmax: 4.8 h
[2]; human, plasma, po, 300 mg, patient plasma, oral (1-g) 300 mg QD, C1D15, n = 10, mean, read-out: T½ (converted)
  half-life: 32.9 h
[2]; human, plasma, po, 400 mg, patient plasma, oral (1-g) 400 mg QD, C1D1, n = 6, *median value, read-out: Tmax*
  Tmax: 6 h
[2]; human, plasma, po, 400 mg, patient plasma, oral (1-g) 400 mg QD, C1D1, n = 6, mean, read-out: AUC0-24 h
  AUC(0-t): 18800 ng·h/mL
[2]; human, plasma, po, 400 mg, patient plasma, oral (1-g) 400 mg QD, C1D1, n = 6, mean, read-out: Cmax
  Cmax: 1070 ng/mL
[2]; human, plasma, po, 400 mg, patient plasma, oral (1-g) 400 mg QD, C1D1, n = 6, mean, read-out: T½ (converted)
  half-life: 30.4 h
[2]; human, plasma, po, 400 mg, patient plasma, oral (1-g) 400 mg QD, C1D15, n = 5, *median value, read-out: Tmax*
  Tmax: 4.4 h
[2]; human, plasma, po, 400 mg, patient plasma, oral (1-g) 400 mg QD, C1D15, n = 5, mean, read-out: AUC0-24 h
  AUC(0-t): 45900 ng·h/mL
[2]; human, plasma, po, 400 mg, patient plasma, oral (1-g) 400 mg QD, C1D15, n = 5, mean, read-out: Cmax
  Cmax: 2360 ng/mL
[2]; human, plasma, po, 400 mg, patient plasma, oral (1-g) 400 mg QD, C1D15, n = 5, mean, read-out: T½ (converted)
  half-life: 44.9 h
[2]; human, plasma, po, 600 mg, patient plasma, oral (1-g) 600 mg QD, C1D1, n = 4, *median value, read-out: Tmax*
  Tmax: 4.5 h
[2]; human, plasma, po, 600 mg, patient plasma, oral (1-g) 600 mg QD, C1D1, n = 4, mean, read-out: AUC0-24 h
  AUC(0-t): 26100 ng·h/mL
[2]; human, plasma, po, 600 mg, patient plasma, oral (1-g) 600 mg QD, C1D1, n = 4, mean, read-out: Cmax
  Cmax: 1390 ng/mL
[2]; human, plasma, po, 600 mg, patient plasma, oral (1-g) 600 mg QD, C1D1, n = 4, mean, read-out: T½ (converted)
  half-life: 40.9 h
[2]; human, plasma, po, 600 mg, patient plasma, oral (1-g) 600 mg QD, C1D15, n = 4, *median value, read-out: Tmax*
  Tmax: 6 h
[2]; human, plasma, po, 600 mg, patient plasma, oral (1-g) 600 mg QD, C1D15, n = 4, mean, read-out: AUC0-24 h
  AUC(0-t): 48600 ng·h/mL
[2]; human, plasma, po, 600 mg, patient plasma, oral (1-g) 600 mg QD, C1D15, n = 4, mean, read-out: Cmax
  Cmax: 2680 ng/mL
[2]; human, plasma, po, 600 mg, patient plasma, oral (1-g) 600 mg QD, C1D15, n = 4, mean, read-out: T½ (converted)
  half-life: 27.6 h
[2]; human, plasma, po, patients, 100-600 mg QD oral, read-out: AUC0-24h, range
  AUC(0-t): 7570 to 48600 ng·h/mL
[2]; human, plasma, po, patients, 100-600 mg QD oral, read-out: Cmax, range
  Cmax: 432 to 2680 ng/mL
[2]; human, plasma, po, patients, 100-600 mg QD oral, read-out: mean effective T1/2 at steady state, range
  half-life: 20.2 to 48.8 h
[2]; human, plasma, po, patients, 100-600 mg QD oral, read-out: median Tmax, range across the dose levels
  Tmax: 4 to 13 h
[2]; patient plasma, oral (1-g) 100 mg QD, C1D15 (steady state), n = 3, mean
  Cmax: 1008.67 ng/mL
[2]; patient plasma, oral (1-g) 200 mg QD, C1D15 (steady state), n = 12, mean
  Cmax: 1341.75 ng/mL
[2]; patients, FIGS. 4A, 4C, 4D
  dose proportionality of pharmacokinetics: dose proportional relationship up to 400 mg but almost plateaued at 400 mg
[2]; patients, preliminary results
  Cmax and AUC0-24h versus dose: dose-dependent increases
[2]
  conversion to compound (1-h) in patients: partially converted to compound (1-h)
[2]; listed as 1-g
  conversion to compound (1-h) in patients: partially metabolized to form compound 1-h
